Experimental data as given in US6780883B2, “Amide inhibitors of microsomal triglyceride transfer protein” (Warner-Lambert Company, priority 1998, dated 2004).

Columns and labels:
[1] = system: Lp(a) production in HepG2^K17 cells; experiment: LPA3 screen: inhibition of Lp(a) production in transfected HepG2 cells, Lp(a) in media by ELISA; type: cell-based; details: Homo sapiens, 8 hours, 0.3 to 50 μM compound, Lp(a) normalized for total protein, read-out: Lp A3 IC50
How it was run: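 HepG2 cells stably expressing apo(a) 17-kringle construct, seeded overnight, then exposed to 0.3 to 50 μM compound for 8 h at 37 °C. Lp(a) secreted into media measured by ELISA and normalized to total cellular protein.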

[2] = biological target: apolipoprotein(a), [apo(a)], apolipoproteinB-100, [apoB-100], coupling reaction that generates Lp(a) (Homo sapiens, UniProt P04114+P08519); experiment: LPABC screen: lipoprotein(a) biochemical coupling assay, Lp(a) content by ELISA; details: recombinant apo(a) 17-kringle (293 cell media) + HepG2 conditioned media, 67 minutes, 37° C., 0.3 to 50 μM compound; read-out: Lp ABC IC50
How it was run: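 Conditioned medium from 293 cells stably expressing 17-kringle apo(a), diluted 1:3 in PBS and prewarmed 10 min at 37 °C, mixed with compound (added as 0.3–50 μM PBS solution) then 1:3-diluted HepG2 conditioned medium as apoB-100 source. Incubated 67 min at 37 °C; Lp(a) formed quantified by ELISA.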

SMILES | IC50 [1] | IC50 [2]
COc1ccccc1C(=O)N(Cc1ccccc1-c1ccccc1)c1ccncc1 [Example 119, N-Biphenyl-2-ylmethyl-2-methoxy-N-pyridin-4-yl-benzamide] | 4.8 µM | > 50 µM
COc1cc(C(=O)N(Cc2ccccc2-c2ccccc2)c2cnc3ccccc3c2)cc(OC)c1OC [Example 64, N-Biphenyl-2-ylmethyl-3,4,5-trimethoxy-N-quinolin-3-yl-benzamide] | 13.1 µM | > 50 µM
COc1ccc(N(Cc2ccccc2-c2ccccc2)C(=O)c2ccc(OC)cc2OC)cc1 [Example 106, N-Biphenyl-2-ylmethyl-2,4-dimethoxy-N-(4-methoxy-phenyl)-benzamide] | 9.3 µM | > 50 µM
CC(C)c1ccc(C(=O)N(Cc2ccccc2-c2ccccc2)c2cccnc2)cc1 [Example 72, N-Biphenyl-2-ylmethyl-4-isopropyl-N-pyridin-3-yl-benzamide] | 37.1 µM | > 50 µM
CCOc1ccccc1C(=O)N(Cc1ccc2ccccc2c1)c1cccnc1 [Example 79, 2-Ethoxy-N-naphthalen-2-ylmethyl-N-pyridin-3-yl-benzamide] | 17 µM | > 50 µM
COc1ccc(N(Cc2ccc(Cl)c(Cl)c2)C(=O)c2cc(OC)c(OC)c(OC)c2)cn1 [Example 67, N-(3,4-Dichloro-benzyl)-3,4,5-trimethoxy-N-(6-methoxy-pyridin-3-yl)-benzamide] | 54.6 µM | > 50 µM
O=C(c1cccc2c1OCO2)N(Cc1cccnc1)Cc1ccccc1-c1ccccc1 [Example 97, Benzo[1,3]dioxole-4-carboxylic acid biphenyl-2-ylmethyl-pyridin-3-ylmethyl-amide] | 7.8 µM | > 50 µM
COc1ccc(N(Cc2ccccc2-c2ccccc2)C(=O)c2ccccc2SC)cc1 [Example 126, N-Biphenyl-2-ylmethyl-N-(4-methoxy-phenyl)-2-methylsulfanyl-benzamide] | 16 µM | > 50 µM
CCCCOc1ccc(N(Cc2ccccc2-c2ccccc2)C(=O)CN(CC)CC)cn1 [Example 84, N-Biphenyl-2-ylmethyl-N-(6-butoxy-pyridin-3-yl)-2-diethylamino-acetamide] | 43.7 µM | > 50 µM
COc1ccc(N(Cc2ccccc2-c2ccccc2)C(=O)c2ccccc2SC(C)C)cc1OC [Example 135, N-Biphenyl-2-ylmethyl-N-(3,4-dimethoxy-phenyl)-2-isopropylsulfanyl-benzamide] | 21.9 µM | > 50 µM
CCN(CC)CCCc1ccc(N(Cc2cccc(OC)c2)C(=O)c2ccccc2)cc1 [Example 55, N-[4-(3-Diethylamino-propyl)-phenyl]-N-(3-methoxy-benzyl)-benzamide] | 37 µM | > 50 µM
O=C(c1cc2ccccc2s1)N(Cc1ccccc1-c1ccccc1)c1cccnc1 [Example 116, Benzo[b]thiophene-2-carboxylic acid biphenyl-2-ylmethyl-pyridin-3-yl-amide] | 9.3 µM | > 50 µM
CCOc1ccccc1C(=O)N(Cc1ccccc1-c1ccccc1)c1ccncc1 [Example 118, N-Biphenyl-2-ylmethyl-2-ethoxy-N-pyridin-4-yl-benzamide] | 5.8 µM | > 50 µM
COc1ccc(C(=O)N(Cc2ccccc2-c2ccccc2)c2ccc(OC)cc2)cc1 [Example 103, N-Biphenyl-2-ylmethyl-4-methoxy-N-(4-methoxy-phenyl)-benzamide] | 49 µM | > 50 µM
CCOc1ccccc1C(=O)N(Cc1ccccc1-c1ccccc1)c1cccnc1 [Example 81, N-Biphenyl-2-ylmethyl-2-ethoxy-N-pyridin-3-yl-benzamide] | 0.9 µM | > 50 µM
CCN(CC)CCCc1ccc(N(Cc2cc(C(F)(F)F)cc(C(F)(F)F)c2)C(=O)c2ccccc2)cc1 [Example 52, N-(3,5-Bis-trifluoromethyl-benzyl)-N-[4-(3-diethylamino-propyl)-phenyl]-benzamide] | 12 µM | > 50 µM
COc1ccc(CN(C(=O)c2ccccc2)c2ccccc2OC)cc1 [Example 86, N-(4-Methoxy-benzyl)-N-(2-methoxy-phenyl)-benzamide] | 30.1 µM | > 50 µM
CCC[S+]([O-])c1ccccc1C(=O)N(Cc1ccccc1-c1ccccc1)c1ccc(OC)c(OC)c1 (stereo not drawn) [Example 141, N-Biphenyl-2-ylmethyl-N-(3,4-dimethoxy-phenyl)-2-(propane-1-sulfinyl)-benzamide] | 6 µM | > 50 µM
O=C(c1ccccc1[N+](=O)[O-])N(Cc1ccccc1-c1ccccc1)c1ccccn1 [Example 112, N-Biphenyl-2-ylmethyl-2-nitro-N-pyridin-2-yl-benzamide] | 23.7 µM | > 50 µM
CCOc1ccccc1C(=O)N(Cc1cc(C(C)(C)C)cc(C(C)(C)C)c1)c1cccnc1 [Example 74, N-(3,5-Di-tert-butyl-benzyl)-2-ethoxy-N-pyridin-3-yl-benzamide] | 11.6 µM | > 50 µM
COc1cccc(CN(C(=O)c2ccc(OC)c(OC)c2)c2ccccc2)c1 [Example 45, 3,4-Dimethoxy-N-(3-methoxy-benzyl)-N-phenyl-benzamide] | 52.1 µM | > 50 µM
